Results published in patent US11725036B2, “Modified lipidated relaxin B chain peptides and their therapeutic use” (Sanofi, priority 2018, dated 2023).
Starred links: 1 amine or outer side, 2 acyl side, 3 side chain; linkers in the order of their positions; H or OH if unused. Non-standard residues stand in square brackets, D forms with d. Residues, ends and D or L forms follow the SMILES beside them. Groups on a side chain read outwards from the residue. *: point of attachment. X1 = CCCCCCCCCCCCCCCC(=O)N[C@@H](CCC(=O)N[C@@H](CCC(=O)N[C@@H](CCC(=O)NCCCOCCOCCOCCCNC(=O)CCC(=O)NCCCOCCOCCOCCCNC(=O)CCC(=O)NCCCOCCOCCOCCCN*)C(=O)O)C(=O)O)C(=O)O; X8 = CCCCCCCCCCCCCCCC(=O)N[C@@H](CCC(=O)N[C@@H](CCC(=O)N[C@@H](CCC(=O)N[C@@H](CCC(=O)NCCCOCCOCCOCCCNC(=O)CCC(=O)NCCCOCCOCCOCCCN*)C(=O)O)C(=O)O)C(=O)O)C(=O)O; X9 = CCCCCCCCCCCCCCCC(=O)N[C@@H](CCC(=O)N[C@@H](CCC(=O)NCCCOCCOCCOCCCNC(=O)CCC(=O)NCCCOCCOCCOCCCN*)C(=O)O)C(=O)O; γGlu = O=C(O)[C@H](CCC(=O)[*:2])N[*:1]; Palmitoyl = CCCCCCCCCCCCCCCC(=O)*; Cit = NC(=O)NCCC[C@H](N)C(=O)O; Suc = O=C(CCC(=O)[*:2])[*:1]; αMeK = C[C@](N)(CCCCN)C(=O)O; AEEA = NCCOCCOCC(=O)O; Aib = CC(C)(N)C(=O)O

Molecular target: T1, RXFP1 (Homo sapiens, UniProt Q9HBX9)
T1 construct: OVCAR5 cells expressing endogenous RXFP1; endogenous in cells; host or cells: OVCAR5
T1 sequence (Q9HBX9 1-757): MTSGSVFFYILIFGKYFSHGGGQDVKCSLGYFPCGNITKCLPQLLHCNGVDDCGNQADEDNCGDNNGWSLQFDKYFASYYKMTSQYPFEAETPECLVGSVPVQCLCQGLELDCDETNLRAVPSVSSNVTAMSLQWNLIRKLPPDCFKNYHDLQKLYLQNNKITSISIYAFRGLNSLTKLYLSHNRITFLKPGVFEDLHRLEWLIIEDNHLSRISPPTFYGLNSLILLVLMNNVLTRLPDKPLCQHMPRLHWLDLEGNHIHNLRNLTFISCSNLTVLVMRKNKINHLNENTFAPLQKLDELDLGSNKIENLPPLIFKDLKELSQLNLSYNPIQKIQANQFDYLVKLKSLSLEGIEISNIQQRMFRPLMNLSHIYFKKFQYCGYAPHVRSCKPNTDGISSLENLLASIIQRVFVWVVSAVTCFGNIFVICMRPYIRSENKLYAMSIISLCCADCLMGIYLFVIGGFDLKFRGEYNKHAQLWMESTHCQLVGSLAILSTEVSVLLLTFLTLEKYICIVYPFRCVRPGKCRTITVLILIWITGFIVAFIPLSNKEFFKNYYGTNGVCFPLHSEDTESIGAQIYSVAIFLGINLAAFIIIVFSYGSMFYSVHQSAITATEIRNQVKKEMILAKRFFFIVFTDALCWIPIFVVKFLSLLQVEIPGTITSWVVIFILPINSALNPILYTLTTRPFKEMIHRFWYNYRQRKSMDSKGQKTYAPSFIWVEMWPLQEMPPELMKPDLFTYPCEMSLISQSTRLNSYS
Assay: OVCAR5 cAMP assay (HTRF)
Assay type: cell-based
Settings: for EC50: OVCAR 5 cells expressing endogenous RXFP1, cAMP readout; for Emax: OVCAR 5 cells, maximal cAMP relative to H2-relaxin
Text: OVCAR5 cells expressing endogenous RXFP1 were used to test RXP1 agonist properties of peptides of the invention, and in particular of the peptides of sequence SEQ ID NO: 1-97.
Since RXFP1 is a Gs coupled GPCR, cAMP was used as readout of RXFP1 activation.
Isobutyl Methyl Xanthine (IBMX) was used to inhibit phosphodiesterase activity facilitating cAMP measurements. HTRF (Homogenous Time Resolved Fluorescence) technology was used to detect cAMP due to its great sensitivity.
In summary, OVCAR5 were grown in regular medium (RPMI) containing 10% fetal calf serum (FCS) and 1% antibiotics (penicillin/streptomycin).
Before the experiments, cells were detached with accutase and incubated for 40 minutes at 37° C. with 1 mM (3-isobutyl-1-methylxanthine) IBMX.
Cells were then distributed in 384 black well plates containing increasing concentrations of the different peptides in a fix volume of medium (without FCS).
After an incubation of 30 min at 37° C. in an humid incubator in 5% CO2, the reaction was stopped by adding a fixed volume of a solution containing a lysis buffer and cAMP-D2 (cAMP labeled with the dye d2) and the anti cAMP antibody linked to Europium and used for cAMP detection.
Readout of the experiment were performed on a fluorimeter allowing HTRF measurement. Activation curves were generated by plotting the intracellular value of cAMP versus log 10 of the compound concentration.
The 50% activation concentration (EC50) was calculated by nonlinear regression using the sigmoidal dose-response (variable slope) equation with Prism 5 software.
Emax % was determined as the maximal intracellular value of cAMP for test compound (upper limit of cAMP vs concentration curve) divided by the maximal intracellular value of cAMP for H2-relaxin determined in the same test occasion multiplied by 100. Emax %=100×[cAMPtest cpd]/[cAMPH2-Rlx]

Structure (SMILES) | EC50 [nM] | Emax [%]
CCCCCCCCCCCCCCCC(=O)N[C@@H](CCC(=O)N[C@@H](CCC(=O)N[C@@H](CCC(=O)NCCCOCCOCCOCCCNC(=O)CCC(=O)NCCCOCCOCCOCCCNC(=O)CCC(=O)NCCCOCCOCCOCCCNC(=O)CCC(=O)NCCCC[C@H](NC(=O)CNC(=O)[C@H](CCC(=O)O)NC(=O)C(C)(C)NC(=O)C(C)(C)NC(=O)[C@@H](NC(=O)[C@H](CCCCNC(C)=O)NC(=O)[C@H](C)NC(=O)[C@H](CCCNC(=N)N)NC(=O)[C@@H](NC(=O)[C@H](CCCCN)NC(=O)[C@H](CCC(=O)O)NC(=O)[C@H](CCCNC(=N)N)NC(=O)CNC(=O)[C@H](CCC(=O)O)NC(=O)[C@H](CC(C)C)NC(C)=O)C(C)C)[C@@H](C)CC)C(=O)N[C@@H](CO)C(=O)N[C@H](C(=O)N[C@@H](Cc1c[nH]c2ccccc12)C(=O)N[C@@H](CO)C(=O)NC(C)(C)C(=O)N[C@@H](CCCNC(=N)N)C(=O)N[C@@H](CCCCN)C(=O)N[C@@H](CCCCNC(C)=O)C(N)=O)[C@@H](C)O)C(=O)O)C(=O)O)C(=O)O [compound 1] (Ac-LEGREKVRAK(Ac)I[Aib][Aib]EGK([Suc-X1])STWS[Aib]RKK(Ac)-NH2) | 1.5 | 99
CCCCCCCCCCCCCCCC(=O)N[C@@H](CCC(=O)N[C@@H](CCC(=O)N[C@@H](CCC(=O)NCCCOCCOCCOCCCNC(=O)CCC(=O)NCCCOCCOCCOCCCNC(=O)CCC(=O)NCCCOCCOCCOCCCNC(=O)CCC(=O)NCCCC[C@H](NC(=O)CNC(=O)[C@H](CCC(=O)O)NC(=O)C(C)(C)NC(=O)C(C)(C)NC(=O)[C@@H](NC(=O)[C@H](CCCCNC(C)=O)NC(=O)[C@H](C)NC(=O)[C@H](CCCNC(=N)N)NC(=O)[C@@H](NC(=O)[C@H](CCCCN)NC(=O)[C@H](CCC(=O)O)NC(=O)[C@H](CCCNC(=N)N)NC(=O)CNC(=O)[C@H](CCC(=O)O)NC(=O)[C@H](CC(C)C)NC(C)=O)C(C)C)[C@@H](C)CC)C(=O)N[C@@H](CO)C(=O)N[C@H](C(=O)N[C@@H](Cc1ccccc1)C(=O)N[C@@H](CO)C(=O)NC(C)(C)C(=O)N[C@@H](CCCNC(=N)N)C(=O)N[C@@H](C)C(=O)N[C@@H](CCCCNC(C)=O)C(N)=O)[C@@H](C)O)C(=O)O)C(=O)O)C(=O)O [compound 2] (Ac-LEGREKVRAK(Ac)I[Aib][Aib]EGK([Suc-X1])STFS[Aib]RAK(Ac)-NH2) | 2.4 | 99
CCCCCCCCCCCCCCCC(=O)N[C@@H](CCC(=O)N[C@@H](CCC(=O)N[C@@H](CCC(=O)NCCOCCOCC(=O)NCCOCCOCC(=O)NCCOCCOCC(=O)NCCOCCOCC(=O)NCCCC[C@H](NC(=O)CNC(=O)[C@H](CCC(=O)O)NC(=O)C(C)(C)NC(=O)C(C)(C)NC(=O)[C@@H](NC(=O)[C@H](CCCCNC(C)=O)NC(=O)[C@H](C)NC(=O)[C@H](CCCNC(=N)N)NC(=O)[C@@H](NC(=O)[C@H](CCCCN)NC(=O)[C@H](CCC(=O)O)NC(=O)[C@H](CCCNC(=N)N)NC(=O)CNC(=O)[C@H](CCC(=O)O)NC(=O)[C@H](CC(C)C)NC(C)=O)C(C)C)[C@@H](C)CC)C(=O)N[C@@H](CO)C(=O)N[C@H](C(=O)N[C@@H](Cc1ccccc1)C(=O)N[C@@H](CO)C(=O)N[C@@](C)(CCCCN)C(=O)N[C@@H](CCCNC(=N)N)C(=O)N[C@@H](C)C(=O)N[C@@H](CCCCNC(C)=O)C(N)=O)[C@@H](C)O)C(=O)O)C(=O)O)C(=O)O [compound 8] (Ac-LEGREKVRAK(Ac)I[Aib][Aib]EGK([AEEA-AEEA-AEEA-AEEA-γGlu-γGlu-γGlu-Palmitoyl])STFS[αMeK]RAK(Ac)-NH2) | 1.86 | 92
CCCCCCCCCCCCCCCC(=O)N[C@@H](CCC(=O)N[C@@H](CCC(=O)NCCCOCCOCCOCCCNC(=O)CCC(=O)NCCCOCCOCCOCCCNC(=O)CCC(=O)NCCCC[C@H](NC(=O)CNC(=O)[C@H](CCC(=O)O)NC(=O)C(C)(C)NC(=O)C(C)(C)NC(=O)[C@@H](NC(=O)[C@H](CCCCNC(C)=O)NC(=O)[C@H](C)NC(=O)[C@H](CCCNC(=N)N)NC(=O)[C@@H](NC(=O)[C@H](CCCCN)NC(=O)[C@H](CCC(=O)O)NC(=O)[C@H](CCCNC(=N)N)NC(=O)CNC(=O)[C@H](CCC(=O)O)NC(=O)[C@H](CC(C)C)NC(C)=O)C(C)C)[C@@H](C)CC)C(=O)N[C@@H](CO)C(=O)N[C@H](C(=O)N[C@@H](Cc1ccccc1)C(=O)N[C@@H](CO)C(=O)N[C@@](C)(CCCCN)C(=O)N[C@@H](CCCNC(=N)N)C(=O)N[C@@H](C)C(=O)N[C@@H](CCCCNC(C)=O)C(N)=O)[C@@H](C)O)C(=O)O)C(=O)O [compound 9] (Ac-LEGREKVRAK(Ac)I[Aib][Aib]EGK([Suc-X9])STFS[αMeK]RAK(Ac)-NH2) | 0.7 | 93
CCCCCCCCCCCCCCCC(=O)N[C@@H](CCC(=O)N[C@@H](CCC(=O)N[C@@H](CCC(=O)N[C@@H](CCC(=O)NCCCOCCOCCOCCCNC(=O)CCC(=O)NCCCOCCOCCOCCCNC(=O)CCC(=O)NCCCC[C@H](NC(=O)CNC(=O)[C@H](CCC(=O)O)NC(=O)C(C)(C)NC(=O)C(C)(C)NC(=O)[C@@H](NC(=O)[C@H](CCCCNC(C)=O)NC(=O)[C@H](C)NC(=O)[C@H](CCCNC(=N)N)NC(=O)[C@@H](NC(=O)[C@H](CCCCN)NC(=O)[C@H](CCC(=O)O)NC(=O)[C@H](CCCNC(=N)N)NC(=O)CNC(=O)[C@H](CCC(=O)O)NC(=O)[C@H](CC(C)C)NC(C)=O)C(C)C)[C@@H](C)CC)C(=O)N[C@@H](CO)C(=O)N[C@H](C(=O)N[C@@H](Cc1ccccc1)C(=O)N[C@@H](CO)C(=O)N[C@@](C)(CCCCN)C(=O)N[C@@H](CCCNC(=N)N)C(=O)N[C@@H](C)C(=O)N[C@@H](CCCCNC(C)=O)C(N)=O)[C@@H](C)O)C(=O)O)C(=O)O)C(=O)O)C(=O)O [compound 10] (Ac-LEGREKVRAK(Ac)I[Aib][Aib]EGK([Suc-X8])STFS[αMeK]RAK(Ac)-NH2) | 0.79 | 95
CCCCCCCCCCCCCCCC(=O)N[C@@H](CCC(=O)N[C@@H](CCC(=O)N[C@@H](CCC(=O)NCCCOCCOCCOCCCNC(=O)CCC(=O)NCCCOCCOCCOCCCNC(=O)CCC(=O)NCCCOCCOCCOCCCNC(=O)CCC(=O)NCCCC[C@H](NC(=O)CNC(=O)[C@H](CCC(=O)O)NC(=O)C(C)(C)NC(=O)C(C)(C)NC(=O)[C@@H](NC(=O)[C@H](CCCCNC(C)=O)NC(=O)[C@H](C)NC(=O)[C@H](CCCNC(=N)N)NC(=O)[C@@H](NC(=O)[C@H](CCCCN)NC(=O)[C@H](CCC(=O)O)NC(=O)[C@H](CCCNC(=N)N)NC(=O)CNC(=O)[C@H](CCC(=O)O)NC(=O)[C@H](CC(C)C)NC(C)=O)C(C)C)[C@@H](C)CC)C(=O)N[C@@H](CO)C(=O)N[C@H](C(=O)N[C@@H](Cc1c[nH]c2ccccc12)C(=O)N[C@@H](CO)C(=O)N[C@@](C)(CCCCN)C(=O)N[C@@H](CCCNC(=N)N)C(=O)N[C@@H](C)C(=O)N[C@@H](CCCCNC(C)=O)C(N)=O)[C@@H](C)O)C(=O)O)C(=O)O)C(=O)O [compound 11] (Ac-LEGREKVRAK(Ac)I[Aib][Aib]EGK([Suc-X1])STWS[αMeK]RAK(Ac)-NH2) | 0.83 | 93
CCCCCCCCCCCCCCCC(=O)N[C@@H](CCC(=O)N[C@@H](CCC(=O)N[C@@H](CCC(=O)NCCCOCCOCCOCCCNC(=O)CCC(=O)NCCCOCCOCCOCCCNC(=O)CCC(=O)NCCCOCCOCCOCCCNC(=O)CCC(=O)NCCCC[C@H](NC(=O)CNC(=O)[C@H](CCC(=O)O)NC(=O)C(C)(C)NC(=O)C(C)(C)NC(=O)[C@@H](NC(=O)[C@H](CCCNC(N)=O)NC(=O)[C@H](C)NC(=O)[C@H](CCCNC(=N)N)NC(=O)[C@@H](NC(=O)[C@H](CCCCN)NC(=O)[C@H](CCC(=O)O)NC(=O)[C@H](CCCNC(=N)N)NC(=O)CNC(=O)[C@H](CCC(=O)O)NC(=O)[C@H](CC(C)C)NC(C)=O)C(C)C)[C@@H](C)CC)C(=O)N[C@@H](CO)C(=O)N[C@H](C(=O)N[C@@H](Cc1ccccc1)C(=O)N[C@@H](CO)C(=O)N[C@@](C)(CCCCN)C(=O)N[C@@H](CCCNC(=N)N)C(=O)N[C@@H](C)C(=O)N[C@@H](CCCCNC(C)=O)C(N)=O)[C@@H](C)O)C(=O)O)C(=O)O)C(=O)O [compound 12] (Ac-LEGREKVRA[Cit]I[Aib][Aib]EGK([Suc-X1])STFS[αMeK]RAK(Ac)-NH2) | 0.93 | 90
